# Numbered stars: 1 amine (or outer) side, 2 acyl side, 3 side chain; on linkers, the order of the positions; unused ones are H or OH. Bridge positions count the residues as written; N and C are the ends. Square brackets hold non-standard residues; d marks the D form. Peptide text beside a SMILES is read from it. * marks the point of attachment. ξ: configuration not given here. Tyr(3-NO2) = N[C@@H](Cc1ccc(O)c([N+](=O)[O-])c1)C(=O)O; X33 = O=C([C@H](Cc1ccc(-c2cccc(Cl)c2)cc1)N[*:1])[*:2]; Phe(4-COOH) = N[C@@H](Cc1ccc(C(=O)O)cc1)C(=O)O; Bip = N[C@@H](Cc1ccc(-c2ccccc2)cc1)C(=O)O; Phe(3-Me) = Cc1cccc(C[C@H](N)C(=O)O)c1; Bta = N[C@@H](Cc1csc2ccccc12)C(=O)O; Val(3-OH) = CC(C)(O)[C@H](N)C(=O)O; mTyr = N[C@@H](Cc1cccc(O)c1)C(=O)O; h4Pal = N[C@@H](CCc1ccncc1)C(=O)O; aIle = CC[C@@H](C)[C@H](N)C(=O)O; 4Pal = N[C@@H](Cc1ccncc1)C(=O)O; Cha = N[C@@H](CC1CCCCC1)C(=O)O; Cit = NC(=O)NCCC[C@H](N)C(=O)O; Ala(CN) = N#CC[C@H](N)C(=O)O; dOrn = NCCC[C@@H](N)C(=O)O; Carboxymethyl = O=C(O)C*; NMeA = CN[C@@H](C)C(=O)O; Orn = NCCC[C@H](N)C(=O)O; Dab = NCC[C@H](N)C(=O)O; ξV = CC(C)C(N)C(=O)O
# Molecular target: T1, PE-labeled human PD-L1-Ig binding to Jurkat cell line over-expressing human PD-1 (Jurkat-PD-1) (Homo sapiens, UniProt Q15116)
# T1 construct: expressed in transfected cells; host or cells: Jurkat
# Test: Jurkat-PD-1 Cell Binding High-Content Screening Assay (CBA): Method 1
# Conditions: Jurkat-hPD-1 cells, PE-labeled PD-L1-Ig 20 nM final; read-out: Jurkat HPDL1 PD1 IC50 (uM) (Method 1)
# T1 sequence (Q15116 25-288): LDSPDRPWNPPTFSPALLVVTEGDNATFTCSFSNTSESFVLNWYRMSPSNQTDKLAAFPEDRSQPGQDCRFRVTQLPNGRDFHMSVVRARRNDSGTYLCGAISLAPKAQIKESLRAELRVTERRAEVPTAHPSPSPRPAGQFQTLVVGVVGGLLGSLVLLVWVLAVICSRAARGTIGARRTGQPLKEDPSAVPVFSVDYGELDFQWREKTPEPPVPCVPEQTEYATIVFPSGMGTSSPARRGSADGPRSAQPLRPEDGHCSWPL
row,SMILES,IC50
1,CC(C)C[C@@H]1NC(=O)[C@H](CCCN)NC(=O)[C@@H](CC(C)C)NC(=O)[C@H](C)N(C)C(=O)[C@H](CCCNC(=N)N)NC(=O)[C@H](Cc2ccc(-c3ccccc3)cc2)NC(=O)[C@H](C(C)C)NC(=O)[C@H](Cc2c[nH]c3ccccc23)NC(=O)[C@H](CC(=O)O)NC(=O)[C@H](Cc2ccc(C(=O)O)cc2)NC(=O)[C@H](CC(N)=O)NC(=O)CSC[C@@H](C(=O)N[C@@H](C)C(N)=O)NC(=O)[C@H]([C@@H](C)O)NC(=O)[C@H](C(C)C)NC1=O [Compound 1139] ({CH2CO}-N[Phe(4-COOH)]DWV[Bip]R[NMeA][dL][Orn]LVTCA-NH2; thioether N-14),0.06 µM
2,Cc1cccc(C[C@@H]2NC(=O)[C@H](CC(=O)O)NC(=O)[C@H](Cc3ccc(OCC(=O)O)cc3)NC(=O)[C@H](Cc3ccc(OCC(=O)O)cc3)NC(=O)CSC[C@@H](C(N)=O)NC(=O)[C@H](CCC(=O)O)NC(=O)[C@H](C(C)C)NC(=O)[C@H](CC3CCCCC3)NC(=O)[C@H](CCN)NC(=O)[C@@H](CC(C)C)NC(=O)[C@H](C)N(C)C(=O)[C@H](Cc3ccc(OCC(=O)O)cc3)NC(=O)[C@H](Cc3ccc(-c4ccccc4)cc3)NC(=O)[C@H](Cc3ccc(OCC(=O)O)cc3)NC2=O)c1 [Compound 1657] ({CH2CO}-Y(Carboxymethyl)Y(Carboxymethyl)D[Phe(3-Me)]Y(Carboxymethyl)[Bip]Y(Carboxymethyl)[NMeA][dL][Dab][Cha]VEC-NH2; thioether N-14),0.05 µM
3,CC[C@@H](C)[C@@H]1NC(=O)[C@H](Cc2ccc(-c3ccccc3)cc2)NC(=O)[C@H](CC#N)NC(=O)[C@H](Cc2c[nH]c3ccccc23)NC(=O)[C@H](CC(=O)O)NC(=O)[C@H](Cc2ccc(C(=O)O)cc2)NC(=O)[C@H](Cc2ccc(OCC(=O)O)cc2)NC(=O)CSC[C@@H](C(=O)N[C@@H](CCCCN)C(N)=O)NC(=O)[C@H](CO)NC(=O)C(C(C)C)NC(=O)[C@H](CC(C)C)NC(=O)[C@H](CC(N)=O)NC(=O)[C@@H](CC(C)C)NC(=O)[C@H](C)N(C)C1=O (stereo partly drawn) [Compound 2102] ({CH2CO}-Y(Carboxymethyl)[Phe(4-COOH)]DW[Ala(CN)][Bip][aIle][NMeA][dL]NL[ξV]SCK-NH2; thioether N-14),0.19 µM
4,CC(C)C[C@@H]1NC(=O)[C@H](CCCN)NC(=O)[C@H](Cc2csc3ccccc23)NC(=O)[C@H](C)N(C)C(=O)[C@H](CCCNC(=N)N)NC(=O)[C@H](Cc2ccc(-c3ccccc3)cc2)NC(=O)[C@H](C(C)C)NC(=O)[C@H](Cc2c[nH]c3ccccc23)NC(=O)[C@H](CC(=O)O)NC(=O)[C@H](Cc2ccc(O)cc2)NC(=O)[C@H](Cc2ccccc2)NC(=O)CSC[C@@H](C(=O)N[C@@H](C)C(N)=O)NC(=O)[C@H]([C@@H](C)O)NC(=O)[C@H](C(C)C)NC1=O [Compound 1120] ({CH2CO}-FYDWV[Bip]R[NMeA][Bta][Orn]LVTCA-NH2; thioether N-14),0.27 µM
5,CC(C)C[C@@H]1NC(=O)[C@H](Cc2c[nH]c3ccccc23)NC(=O)[C@H](CC(=O)O)NC(=O)[C@H](Cc2ccc(O)cc2)NC(=O)[C@H](Cc2ccccc2)NC(=O)CSC[C@@H](C(=O)N[C@@H](C)C(N)=O)NC(=O)[C@H](CO)NC(=O)[C@H](C(C)C)NC(=O)[C@H](CC(C)C)NC(=O)[C@H](CC(N)=O)NC(=O)[C@@H](CCCN)NC(=O)[C@H](C)N(C)C(=O)[C@H](C(C)C)NC(=O)[C@H](Cc2ccc(-c3ccccc3)cc2)NC1=O [Compound 1802] ({CH2CO}-FYDWL[Bip]V[NMeA][dOrn]NLVSCA-NH2; thioether N-14),0.19 µM
6,CC(C)C[C@@H]1NC(=O)[C@H](CCN)NC(=O)[C@@H](CC(C)C)NC(=O)[C@H](C)N(C)C(=O)[C@H](CCCNC(=N)N)NC(=O)[C@H](Cc2ccc(-c3ccccc3)cc2)NC(=O)[C@H](C(C)C)NC(=O)[C@H](Cc2c[nH]c3ccccc23)NC(=O)[C@H](CC(=O)O)NC(=O)[C@H](Cc2cccc(O)c2)NC(=O)[C@H](CC(N)=O)NC(=O)CSC[C@@H](C(=O)N[C@@H](C)C(N)=O)NC(=O)[C@H]([C@@H](C)O)NC(=O)[C@H](C(C)C)NC1=O [Compound 1355] ({CH2CO}-N[mTyr]DWV[Bip]R[NMeA][dL][Dab]LVTCA-NH2; thioether N-14),0.13 µM
7,Cc1cccc(C[C@@H]2NC(=O)[C@H](Cc3ccncc3)NC(=O)CSC[C@@H](C(=O)NCC(N)=O)NC(=O)[C@H](CO)NC(=O)[C@H](C(C)C)NC(=O)[C@H](CC(C)C)NC(=O)[C@H](CC(N)=O)NC(=O)[C@@H](CC(C)C)NC(=O)[C@H](C)N(C)C(=O)[C@H](C(C)C)NC(=O)[C@H](Cc3ccc(-c4ccccc4)cc3)NC(=O)[C@H](CC(C)C)NC(=O)[C@H](Cc3c[nH]c4ccccc34)NC(=O)[C@H](CC(=O)O)NC2=O)c1 [Compound 1519] ({CH2CO}-[4Pal][Phe(3-Me)]DWL[Bip]V[NMeA][dL]NLVSCG-NH2; thioether N-14),0.02 µM
8,CC(C)C[C@@H]1NC(=O)[C@H](Cc2c[nH]c3ccccc23)NC(=O)[C@H](CC(=O)O)NC(=O)[C@H](Cc2ccc(C(=O)O)cc2)NC(=O)[C@H](Cc2ccc(OCC(=O)O)cc2)NC(=O)CSC[C@@H](C(=O)N[C@@H](CCN)C(N)=O)NC(=O)[C@H](CCC(=O)O)NC(=O)[C@H](C(C)(C)O)NC(=O)[C@H](CC2CCCCC2)NC(=O)[C@H](CCN)NC(=O)[C@@H](CC(C)C)NC(=O)[C@H](C)N(C)C(=O)[C@H](C(C)(C)O)NC(=O)[C@H](Cc2ccc(-c3ccccc3)cc2)NC1=O [Compound 1717] ({CH2CO}-Y(Carboxymethyl)[Phe(4-COOH)]DWL[Bip][Val(3-OH)][NMeA][dL][Dab][Cha][Val(3-OH)]EC[Dab]-NH2; thioether N-14),0.02 µM
9,CC(C)C[C@H]1NC(=O)[C@H](C)N(C)C(=O)[C@H](CCCNC(N)=O)NC(=O)[C@H](Cc2ccc(-c3ccccc3)cc2)NC(=O)[C@H](C(C)C)NC(=O)[C@H](Cc2c[nH]c3ccccc23)NC(=O)[C@H](CC(=O)O)NC(=O)[C@H](Cc2ccc(OCC(=O)O)cc2)NC(=O)[C@H](Cc2ccccc2)NC(=O)CSC[C@@H](C(=O)N[C@@H](C)C(N)=O)NC(=O)[C@H](CO)NC(=O)[C@H](C(C)C)NC(=O)[C@H](CC2CCCCC2)NC(=O)[C@H](CC(N)=O)NC1=O [Compound 2022] ({CH2CO}-FY(Carboxymethyl)DWV[Bip][Cit][NMeA][dL]N[Cha]VSCA-NH2; thioether N-14),0.01 µM
10,CC(C)C[C@@H]1NC(=O)[C@H](Cc2c[nH]c3ccccc23)NC(=O)[C@H](CC(=O)O)NC(=O)[C@H](Cc2ccc(C(=O)O)cc2)NC(=O)[C@H](CC(N)=O)NC(=O)CSC[C@@H](C(=O)N[C@@H](C)C(N)=O)NC(=O)[C@H](CO)NC(=O)[C@H](C(C)C)NC(=O)[C@H](CC(C)C)NC(=O)[C@H](CC(N)=O)NC(=O)[C@@H](C)NC(=O)[C@H](C)N(C)C(=O)[C@H](C(C)C)NC(=O)[C@H](Cc2ccc(-c3ccccc3)cc2)NC1=O [Compound 1754] ({CH2CO}-N[Phe(4-COOH)]DWL[Bip]V[NMeA][dA]NLVSCA-NH2; thioether N-14),0.03 µM
11,CCNC(=O)[C@H](CCN)NC(=O)[C@@H]1CSCC(=O)N[C@@H](CCN)C(=O)N[C@@H](Cc2ccc(C(=O)O)cc2)C(=O)N[C@@H](CC(=O)O)C(=O)N[C@@H](Cc2c[nH]c3ccccc23)C(=O)N[C@@H](CC(C)C)C(=O)N[C@@H](Cc2ccc(-c3ccccc3)cc2)C(=O)N[C@@H]([C@@H](C)CC)C(=O)N(C)[C@@H](C)C(=O)N[C@H](CC(C)C)C(=O)N[C@@H](CCN)C(=O)N[C@@H](CC2CCCCC2)C(=O)N[C@@H](C(C)(C)O)C(=O)N[C@@H](CO)C(=O)N1 [Compound 1850] ({CH2CO}-[Dab][Phe(4-COOH)]DWL[Bip]I[NMeA][dL][Dab][Cha][Val(3-OH)]SC[Dab]-NHEt; thioether N-14),0.01 µM
12,CC(C)C[C@@H]1NC(=O)[C@H](Cc2c[nH]c3ccccc23)NC(=O)[C@H](CC(=O)O)NC(=O)[C@H](Cc2ccc(OCC(=O)O)cc2)NC(=O)[C@H](CCc2ccncc2)NC(=O)CSC[C@@H](C(=O)N[C@@H](CC(N)=O)C(N)=O)NC(=O)[C@H](Cc2cnc[nH]2)NC(=O)[C@H](C(C)C)NC(=O)[C@H](CC(C)C)NC(=O)[C@H](CCN)NC(=O)[C@@H](CC(C)C)NC(=O)[C@H](C)N(C)C(=O)[C@H](C(C)C)NC(=O)[C@H](Cc2ccc(-c3ccccc3)cc2)NC1=O [Compound 2099] ({CH2CO}-[h4Pal]Y(Carboxymethyl)DWL[Bip]V[NMeA][dL][Dab]LVHCN-NH2; thioether N-14),0.02 µM
13,CC(C)C[C@@H]1NC(=O)[C@H](CCN)NC(=O)[C@@H](CC(C)C)NC(=O)[C@H](C)N(C)C(=O)[C@H](CCCNC(=N)N)NC(=O)[C@H](Cc2ccc(-c3cccc(Cl)c3)cc2)NC(=O)[C@H](C(C)C)NC(=O)[C@H](Cc2c[nH]c3ccccc23)NC(=O)[C@H](CC(=O)O)NC(=O)[C@H](Cc2ccc(O)cc2)NC(=O)[C@H](CC(N)=O)NC(=O)CSC[C@@H](C(=O)N[C@@H](C)C(N)=O)NC(=O)[C@H]([C@@H](C)O)NC(=O)[C@H](C(C)C)NC1=O [Compound 1222] ({CH2CO}-NYDWV[X33]R[NMeA][dL][Dab]LVTCA-NH2; thioether N-14),0.12 µM
14,CC(C)C[C@@H]1NC(=O)[C@H](CCN)NC(=O)[C@@H](CC(C)C)NC(=O)[C@H](C)N(C)C(=O)[C@H](CCCNC(=N)N)NC(=O)[C@H](Cc2ccc(-c3ccccc3)cc2)NC(=O)[C@H](C(C)C)NC(=O)[C@H](Cc2c[nH]c3ccccc23)NC(=O)[C@H](CC(=O)O)NC(=O)[C@H](CCc2ccncc2)NC(=O)[C@H](CC(N)=O)NC(=O)CSC[C@@H](C(=O)N[C@@H](C)C(N)=O)NC(=O)[C@H]([C@@H](C)O)NC(=O)[C@H](C(C)C)NC1=O [Compound 1352] ({CH2CO}-N[h4Pal]DWV[Bip]R[NMeA][dL][Dab]LVTCA-NH2; thioether N-14),0.01 µM
15,CC(C)C[C@@H]1NC(=O)[C@H](CCN)NC(=O)[C@@H](CC(C)C)NC(=O)[C@H](C)N(C)C(=O)[C@H](CCCNC(=N)N)NC(=O)[C@H](Cc2ccc(-c3ccccc3)cc2)NC(=O)[C@H](C(C)C)NC(=O)[C@H](Cc2c[nH]c3ccccc23)NC(=O)[C@H](CC(=O)O)NC(=O)[C@H](Cc2ccc(O)c([N+](=O)[O-])c2)NC(=O)[C@H](CC(N)=O)NC(=O)CSC[C@@H](C(=O)N[C@@H](C)C(N)=O)NC(=O)[C@H]([C@@H](C)O)NC(=O)[C@H](C(C)C)NC1=O [Compound 1160] ({CH2CO}-N[Tyr(3-NO2)]DWV[Bip]R[NMeA][dL][Dab]LVTCA-NH2; thioether N-14),0.03 µM

# — patent US20240409585A1, “MACROCYCLIC IMMUNOMODULATORS” (priority 2021, published 2024)
